The record followed here is patent US12215093B2, “Bicyclic carboxamides and methods of use thereof” (Tempest Therapeutics, Inc., priority 2018, dated 2025).

The target of one experiment is T1, EP4 (Homo sapiens, UniProt P35408).
T1 construct: host or cells: stably transfected HEK293 cells co-expressing a promiscuous G protein and a clytin variant
The experiment is described as follows: Functional calcium flux assay, EP4. It counts as cell-based. The note with it: stably transfected HEK293 cells; PGE2 10 nM; read-out: EP4 Ca2+-flux assay IC50. (In general: Calcium flux is commonly read through the fluorescence of an indicator in the cells.)

Another experiment has as its target EP2 (Homo sapiens, UniProt P43116).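 Note: functional calcium flux assay in stably transfected HEK293 cells expressing EP2 coupled via a promiscuous G protein, clytin luminescence read as area under the curve, 30 min compound preincubation.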

T1 sequence (P35408 whole entry): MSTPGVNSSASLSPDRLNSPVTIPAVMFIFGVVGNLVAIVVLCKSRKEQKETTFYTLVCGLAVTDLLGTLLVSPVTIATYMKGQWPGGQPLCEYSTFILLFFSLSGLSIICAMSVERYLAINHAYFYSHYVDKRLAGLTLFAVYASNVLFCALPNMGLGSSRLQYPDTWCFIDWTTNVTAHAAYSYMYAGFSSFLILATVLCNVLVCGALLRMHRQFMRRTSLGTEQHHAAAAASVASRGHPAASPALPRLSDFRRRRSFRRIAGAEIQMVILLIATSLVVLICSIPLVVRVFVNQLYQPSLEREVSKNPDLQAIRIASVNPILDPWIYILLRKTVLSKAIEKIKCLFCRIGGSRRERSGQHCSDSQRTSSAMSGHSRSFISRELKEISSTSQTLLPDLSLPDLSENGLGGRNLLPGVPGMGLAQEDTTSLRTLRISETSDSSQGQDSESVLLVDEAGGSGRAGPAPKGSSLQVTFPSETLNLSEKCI
Chain of EP2 (P43116 whole entry): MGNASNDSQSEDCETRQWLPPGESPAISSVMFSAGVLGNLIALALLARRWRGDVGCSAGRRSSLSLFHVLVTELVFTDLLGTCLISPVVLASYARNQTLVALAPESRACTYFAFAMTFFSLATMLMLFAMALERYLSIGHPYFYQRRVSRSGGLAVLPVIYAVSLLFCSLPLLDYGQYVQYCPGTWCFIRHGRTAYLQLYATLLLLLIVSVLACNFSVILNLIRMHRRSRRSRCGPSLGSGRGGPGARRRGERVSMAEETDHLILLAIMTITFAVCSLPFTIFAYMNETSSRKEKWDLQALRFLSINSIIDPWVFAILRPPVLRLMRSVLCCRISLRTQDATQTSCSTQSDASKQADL
Procedure for EP2: Each receptor subtype has an additional promiscuous G protein added in order to couple the aforementioned receptor to the calcium signaling pathway. The parental cell line used also expresses a novel variant of clytin, a calcium-activated photo-protein, to enable sensitive luminescent detection. Briefly, cells were plated at 50,000 cells-per-well in black, clear bottom 96-well plates. The plated cells were allowed to sit at room temperature for 30 min prior to transferring to a humidified, 37° C., 5% CO2 incubator for 18 to 24 h. Assay buffer (HBSS with 20 mM HEPES) and loading buffer (assay buffer plus 10 μM coelenterazine) were prepared on the day of the assay. Assays were performed by aspirating media from the assay plate and washing once with assay buffer, then replacing with loading buffer and allowing the cells to incubate for 1.5 h at room temperature. Compounds were prepared in assay buffer at a 3× final concentration in non-binding plates. Compounds were added to the cell plates and incubated for 30 min at room temperature. The prostanoid receptor ligand PGE2 was prepared at a 4× dilution ratio for a final concentration of 10 nM. Plates were run on a Flexstation™ using a 100 ms integration luminescence protocol for a total of 60 sec with ligand addition at 15 sec. Data were obtained from relative light units as measured by area under the curve.

Broadly, the IC50 is the concentration that inhibits the measured activity by half. As for `CCOc1cc(-c2ccc(Cn3ccc4c(OC)ncc(C(=O)NC5CC6(C5)CC(C(=O)O)C6)c43)cc2)ccn1` (centres unmarked) [Example 89, (Sa)-6-(1-(4-(2-ethoxypyridin-4-yl)benzyl)-4-methoxy-1H-pyrrolo[3,2-c]pyridine-7-carboxamido)spiro[3.3]heptane-2-carboxylic acid], the values for the half-maximal inhibitory concentration (IC50) on EP4 and against EP2 were 1.3 nM and 97 nM, respectively.

As to `COc1cccc(-c2ccc(C(C)n3ccc4c(F)ccc(C(=O)NC5CC6(C5)CC(C(=O)O)C6)c43)cc2)c1` (racemic) [Example 117, (Sa)-6-(4-fluoro-1-((racemic)-1-(3′-methoxy-[1,1′-biphenyl]-4-yl)-ethyl)-1H-indole-7-carboxamido)spiro[3.3]heptane-2-carboxylic acid], the values for the IC50 at EP4 and at EP2 were 14 nM and 87 nM, respectively.

With `COc1ccc(C(=O)NC2CC3(CC(CC(=O)O)C3)C2)c2c1cnn2Cc1ccc(-c2ccccc2)cc1` (centres unmarked) [Example 161, (Ra)-2-(6-(1-([1,1′-Biphenyl]-4-ylmethyl)-4-methoxy-1H-indazole-7-carboxamido)spiro[3.3]heptan-2-yl)acetic acid], the IC50 at EP4 is under 1 nM; on EP2 it was 63 nM.

In the case of `COc1cc(-c2ccc(Cn3ncc4cc(Cl)cc(C(=O)NC5CC6(C5)CC(C(=O)O)C6)c43)cc2F)ccn1` (centres unmarked) [Example 154, (Sa)-6-(5-Chloro-1-(3-fluoro-4-(2-methoxypyridin-4-yl)benzyl)-1H-indazole-7-carboxamido)spiro[3.3]heptane-2-carboxylic acid], the IC50 is 2.8 nM at EP4 and under 25 nM at EP2.

For the compound `CNC(=O)c1ccc(-c2ccc(Cn3ccc4c(F)ccc(C(=O)NC5CC6(C5)CC(C(=O)O)C6)c43)cc2)cn1` (centres unmarked) [Example 63, (Sa)-6-(4-fluoro-1-(4-(6-(methylcarbamoyl)pyridin-3-yl)benzyl)-1H-indole-7-carboxamido)spiro[3.3]heptane-2-carboxylic acid], the IC50 on EP4 was under 1 nM; against EP2, 90 nM.

As to `CCNC(=O)c1cc(-c2ccc(Cn3ccc4c(F)ccc(C(=O)NC5CC6(C5)CC(C(=O)O)C6)c43)cc2)ccn1` (centres unmarked) [Example 61, (Sa)-6-(1-(4-(2-(ethylcarbamoyl)pyridin-4-yl)benzyl)-4-fluoro-1H-indole-7-carboxamido)spiro[3.3]heptane-2-carboxylic acid], the values for the IC50 on EP4 and at EP2 were under 1 nM and under 25 nM, respectively.

With `O=C(NC1CC2(C1)CC(C(=O)O)C2)c1ccc(F)c2ccn(Cc3ccc(-c4cccc(OC(F)F)c4)cc3)c12` (centres unmarked) [Example 50, (Sa)-6-(1-((3’-(difluoromethoxy)-[1,1′-biphenyl]-4-yl)methyl)-4-f1uoro-1H-indole-7-carboxamido)spiro[3.3]heptane-2-carboxylic acid], the results for the IC50 on EP4 and against EP2 were under 1 nM and 67 nM, respectively.

`CNC(=O)c1cccc(-c2ccc(Cn3ncc4c(Cl)ccc(C(=O)NC5CC6(C5)CC(C(=O)O)C6)c43)cc2)n1` (centres unmarked) [Example 85, (Sa)-6-(4-chloro-1-(4-(6-(methylcarbamoyl)pyridin-2-yl)benzyl)-1H-indazole-7-carboxamido)spiro[3.3]heptane-2-carboxylic acid]: the IC50 was under 1 nM on EP4 and 30 nM on EP2.

On to `CC(c1ccc(N2C[C@H]3C[C@H]3C2)cc1)n1ncc2c(Cl)ccc(C(=O)NC3CC4(C3)CC(C(=O)O)C4)c21` (single isomer, unassigned) [Example 132, (Sa)-6-(1-((R) or (S)-1-(4-((1R, 5S)-3-azabicyclo[3.1.0]hexan-3-yl)phenyl)ethyl)-4-chloro-1H-indazole-7-carboxamido)spiro[3.3]heptane-2-carboxylic acid], for which the IC50 is 2.2 nM at EP4 and under 25 nM at EP2.

For the compound `O=C(NC1CC2(C1)CC(C(=O)O)C2)c1ccc(Cl)c2cnn(Cc3ccc4ccccc4c3)c12` (centres unmarked) [Example 96, (Sa)-6-(4-chloro-1-(naphthalen-2-ylmethyl)-1H-indazole-7-carboxamido)spiro[3.3]heptane-2-carboxylic acid], the half-maximal inhibitory concentration (IC50) on EP4 is under 1 nM; on EP2, under 25 nM.

Consider `O=C(NC1CC2(C1)CC(C(=O)O)C2)c1ccc(F)c2ccn(Cc3ccc4c(Br)cccc4c3)c12` (centres unmarked) [Example 43], for which the IC50 on EP4 was under 1 nM; against EP2, under 25 nM.

For `O=C(O)CC1CC2(C1)CC(NC(=O)c1cc(Cl)c(F)c3cnn(Cc4ccc(-c5ccccc5)cc4)c13)C2` (centres unmarked) [Example 170, (Ra)-2-(6-(1-([1,1′-Biphenyl]-4-ylmethyl)-5-chloro-4-fluoro-1H-indazole-7-carboxamido)spiro[3.3]heptan-2-yl)acetic acid], the IC50 on EP4 was 5.1 nM; against EP2 it was under 25 nM.

Regarding `O=C(NC1CC2(C1)CC(C(=O)O)C2)c1ccc(Cl)c2cnn(Cc3ccc(C4=CCCC4)c(F)c3)c12` (centres unmarked) [Example 82, (Sa)-6-(4-chloro-1-(4-(cyclopent-1-en-1-yl)-3-fluorobenzyl)-1H-indazole-7-carboxamido)spiro[3.3]heptane-2-carboxylic acid], the IC50 at EP4 is under 1 nM; on EP2, under 25 nM.

On to `COc1cccc(-c2ccc(C(C)n3ncc4c(Cl)ccc(C(=O)NC5CC6(C5)CC(C(=O)O)C6)c43)cc2)c1` (racemic) [Example 122, (Sa)-6-(4-chloro-1-((racemic)-1-(3′-methoxy-[1,1′-biphenyl]-4-yl)-ethyl)-1H-indazole-7-carboxamido)spiro[3.3]heptane-2-carboxylic acid], for which the figures for the IC50 at EP4 and at EP2 were 4.7 nM and under 25 nM, respectively.

Take `O=C(NC1CC2(C1)CC(C(=O)O)C2)c1ccc(F)c2ccn(Cc3ccc4ccc(Br)cc4c3)c12` (centres unmarked) [Example 44, (Sa)-6-(1-((7-bromonaphthalen-2-yl)methyl)-4-fluoro-1H-indole-7-carboxamido)spiro[3.3]heptane-2-carboxylic acid]: the half-inhibitory concentration (IC50) on EP4 is under 1 nM; on EP2 it was 30 nM.

For the compound `COc1cc(C(=O)NC2CC3(C2)CC(C(=O)O)C3)c2c(cnn2Cc2ccc(-c3ccccc3)cc2)c1` (centres unmarked) [Example 159, (Sa)-6-(1-([1,1′-Biphenyl]-4-ylmethyl)-5-methoxy-1H-indazole-7-carboxamido)spiro[3.3]heptane-2-carboxylic acid], the IC50 is under 1 nM at EP4 and 65 nM on EP2.

On to `O=C(NC1CC2(C1)CC(C(=O)O)C2)c1cc(Cl)cc2cnn(Cc3ccc(-c4ccccc4)c(F)c3)c12` (centres unmarked) [Example 153, (Sa)-6-(5-Chloro-1-((2fluoro-[1,1′-biphenyl]-4-yl)methyl)-1H-indazole-7-carboxamido)spiro[3.3]heptane-2-carboxylic acid], for which the IC50 on EP4 was under 1 nM; at EP2, 95 nM.

With `O=C(NC1CC2(C1)CC(C(=O)O)C2)c1ccc(Cl)c2cnn(Cc3ccc(-c4cccc(OC(F)(F)F)n4)cc3)c12` (centres unmarked) [Example 86], the IC50 at EP4 is 1.8 nM; against EP2 it was 36 nM.

On to `CCOc1ccc(-c2ccc(Cn3ccc4c(OC)ncc(C(=O)NC5CC6(C5)CC(C(=O)O)C6)c43)cc2)cn1` (centres unmarked) [Example 91, (Sa)-6-(1-(4-(6-ethoxypyridin-3-yl)benzyl)-4-methoxy-1H-pyrrolo[3,2-c]pyridine-7-carboxamido)spiro[3.3]heptane-2-carboxylic acid], for which the figures for the half-inhibitory concentration (IC50) at EP4 and against EP2 were under 1 nM and 59 nM, respectively.
